Measurements published in US9115059B2, “Oxime derivatives of 3,5-seco-4-nor-cholestane, pharmaceutical compositions containing same, and method for preparing same” (TROPHOS, priority 2008, dated 2015).

Experiments:
motoneurons = experiment: Survival of motoneurons under trophic deprivation in vitro (calcein fluorescence); assay type: cell-based; settings: E14 rat motoneurons, 3 days of culture in Neurobasal medium without trophic factors
Excerpt: It may be useful to refer to patent application WO 0142784 of the applicant regarding culture of the motoneurons of the spinal cord.
The spinal cord of E14 rat embryos is dissected and the ventral part is dissociated by trituration after trypsinization.
The motoneurons are separated from the other spinal cells by a known method (Camu et al., 1993, Purification of spinal motoneurons from chicken and rat embryos by immunopanning. In “Immunoselection Strategies for Neural cell culture”, Neuroprotocols: A companion to Methods in Neurosciences 2, 191-199; Henderson et al., 1993, Neutrophins promote motoneuron survival and are present in embryonic limb bud. Nature 363 (6426):266-70).
The cells are centrifuged on a density gradient. The motoneurons are enriched in the fraction of large cells (the […]). The cells of this fraction are incubated with an anti-p75 antibody, a surface antigen present on motoneurons.
Secondary antibodies coupled to magnetic beads are added and the mixture of cells is passed through a column in a magnet (Arce et al., 1999 Cardiotrophin-1 requires LIFRbeta to promote survival of mouse motoneurons purified by a novel technique. J. Neurosci Res 55(1): 119-26). Only the motoneurons are retained: their purity is of the order of 90%.
The motoneurons are seeded at low density in culture wells on a polyornithine-laminin substrate in a Neurobasal medium (GIBCO) supplemented according to Raoul et al., 1999, Programmed cell death of embryonic motoneurons triggered through the Fas death receptor. J Cell Biol 147(5):1049-62.
Negative controls (absence of trophic factors) and positive controls (in the presence of BDNF (Brain-Derived Neurotrophic Factor) at 1 ng/ml, GDNF (Glial-Derived Neurotrophic Factor) at 1 ng/ml and CNTF (Ciliary Neurotrophic Factor) at 10 ng/ml, marketed by the American company PEPROTECH, Inc. and the company Sigma-Aldrich, are included in each series.
The test compounds are added 60 minutes after seeding and the cultures are kept at 37° C. under 5% CO2 for 3 days.
The motoneurons have a spontaneous tendency to die in the absence of neurotrophic factors (Pettmann and Henderson, 1998, Neuronal cell death. Neuron 20(4):633-47). After 3 days, survival is evaluated by measurement of fluorescence after incubation of the cells in the presence of calcein, which becomes fluorescent in living cells.
After 3 days of culture at 37° C., under 5% CO2 and at saturating humidity, up to 50% of the motoneurons seeded initially survive in the medium supplemented with neurotrophic factors, whereas less than 15% of the motoneurons survive in the culture medium without addition of neurotrophic factors.
The neuroprotective activity of the test compounds was evaluated by their capacity for preventing death of motoneurons when they are added to the Neurobasal medium (GIBCO) in comparison with the survival of motoneurons in the medium to which neurotrophic factors were added.
This survival rate is expressed by the number of living cells after treatment with the test compound relative to the survival induced by the neurotrophic factors. This ratio can therefore represent the percentage survival due to the compound tested relative to the survival induced by the neurotrophic factors. If the ratio is greater than 0, the compounds have a positive effect on survival of the motoneurons.

[1] = test system: avidins (streptavidin or neutravidin); settings: cited from earlier work

With `CC(C)CCCC(C)C1CCC2C3CCC(=NO)C(C)(CCC(O)C(F)(F)F)C3CCC12C` (stereo not drawn) [Compound 3, 4-nor-3,5-seco-3-(trifluoromethyl)cholestan-3-ol-5-one oxime] the “Ratio (living cells after treatment with the test compound relative to the survival induced by the neurotrophic factors)” value (motoneurons; concentration 1 μM) was >0.2.
With `CC(C)CCCC(C)C1CCC2C3CCC(=NO)C(C)(CCO)C3CCC12C` (stereo not drawn) [Compound 10, 3,4-dinor-2,5-secocholestan-2-ol-5-one oxime] the “Ratio (living cells after treatment with the test compound relative to the survival induced by the neurotrophic factors)” value (motoneurons; concentration 1 μM) was >0.2.
In the case of `O=C(O)CCCC[C@@H]1SC[C@@H]2NC(=O)N[C@@H]21` [biotin], the “Ka (affinity of avidins for biotin)” value [1] is listed as ~10^7 M.
For `CC(C)=CCCC(C)C1CCC2C3CCC(=NO)C(C)(CCCO)C3CCC12C` (stereo not drawn) [Compound 11, 4-nor-3,5-secocholest-24-en-3-ol-5-one oxime], the “Ratio (living cells after treatment with the test compound relative to the survival induced by the neurotrophic factors)” value (motoneurons; concentration 1 μM) was >0.2.
With `CC(C)CCCC(C)C1CCC2C3C=CC(=NO)C(C)(CCCO)C3CCC12C` (stereo not drawn) [Compound 8, 4-nor-3,5-secocholest-6-en-3-ol-5-one oxime] the “Ratio (living cells after treatment with the test compound relative to the survival induced by the neurotrophic factors)” value (motoneurons; concentration 1 μM) was >0.2.
With `CC(C)CCC[C@@H](C)[C@H]1CCC2C3CC/C(=N/O)[C@](C)(CCCN(C)C(=O)CCCC[C@@H]4SC[C@@H]5NC(=O)N[C@@H]54)C3CC[C@@]21C` (stereo partly drawn) [Compound 4, 3-[(N-(+)-biotinoyl-N-methyl)amino]-4-nor-3,5-secocholestan-5-one oxime] the “Ratio (living cells after treatment with the test compound relative to the survival induced by the neurotrophic factors)” value (motoneurons; concentration 0.3 μM) was >0.2.
In the case of `CC(CCCC(C)(C)O)C1CCC2C3CCC(=NO)C(C)(CCCO)C3CCC12C` (stereo not drawn) [Compound 2, 4-nor-3,5-secocholestan-3,25-diol-5-one oxime], the “Ratio (living cells after treatment with the test compound relative to the survival induced by the neurotrophic factors)” value (motoneurons; concentration 3 μM) is reported as >0.2.
In the case of `CC(CCCC(C)(C)F)C1CCC2C3CCC(=NO)C(C)(CCCO)C3CCC12C` (stereo not drawn) [Compound 6, 25-fluoro-4-nor-3,5-secocholestan-3-ol-5-one oxime], the “Ratio (living cells after treatment with the test compound relative to the survival induced by the neurotrophic factors)” value (motoneurons; concentration 3 μM) is reported as >0.2.
In the case of `CCC(C=CC(C)C1CCC2C3CCC(=NO)C(C)(CCCO)C3CCC12C)C(C)C` (stereo not drawn) [Compound 12, 24β-ethyl-4-nor-3,5-secocholest-22-en-3-ol-5-one oxime], the “Ratio (living cells after treatment with the test compound relative to the survival induced by the neurotrophic factors)” value (motoneurons; concentration 1 μM) is reported as >0.2.
In the case of “7-hydroxyamino-4-nor-3,5-secocholest-6-year-3-ol-5-one oxime [Compound 9]”, the “Ratio (living cells after treatment with the test compound relative to the survival induced by the neurotrophic factors)” value (motoneurons; concentration 1 μM) is reported as >0.2.
In the case of `CCCC1(C)C(=NO)CCC2C1CCC1(C)C(C(C)CCCC(C)C)CCC21` (stereo not drawn) [Compound 7, 4-nor-3,5-secocholestan-5-one oxime], the “Ratio (living cells after treatment with the test compound relative to the survival induced by the neurotrophic factors)” value (motoneurons; concentration 1 μM) is reported as >0.2.
With `CC(C)CCC[C@@H](C)[C@H]1CCC2C3CC/C(=N/O)[C@](C)(CCCN(C)c4ccc([N+](=O)[O-])c5nonc45)C3CC[C@@]21C` (stereo partly drawn) [Compound 5, 3-[methyl-(7-nitro-2,1,3-benzoxadiazol-4-yl)amino]-4-nor-3,5-secocholestan-5-one oxime] the “Ratio (living cells after treatment with the test compound relative to the survival induced by the neurotrophic factors)” value (motoneurons; concentration 1 μM) was >0.2.
